According to patent US20240122930A1, “INTEGRIN INHIBITORS AND USES THEREOF IN COMBINATION WITH OTHER AGENTS” (Pliant Therapeutics, Inc., priority 2022, published 2024):

Key:
Assay type in all cases: in vivo, human
[1] = test system: participants with idiopathic pulmonary fibrosis (IPF); experiment: Phase 2a clinical trial: High Resolution CT-based Quantitative Lung Fibrosis (QLF) imaging; conditions: for Mean Percent Change in QLF Extent From Baseline to Week 12 (Mean Difference) / Median change in QLF Extent From Baseline to Week 12 / QLF extent change Baseline to Week 12: Improvers < −2%, % / QLF extent change Baseline to Week 12: Stable [−2, 2%), % / QLF extent change Baseline to Week 12: Worse > 2%, %: CT Protocol Population
Description: Study Design and Objectives. […] At Day 1, baseline values were collected.
[…]-IPF study design and objectives.
QLF was measured by computed tomography. […] QLF refers to quantitative lung fibrosis. […] Per CT protocol population: Participants with both baseline and post baseline high resolution computed tomography (HRCT) scans meet evaluability criteria per Imaging Charter.

[2] = Dose-Dependent Target Engagement (FIG. 12, prior studies)
Description: FIG. 12 through FIG. 33 illustrate various details and results from the clinical trial. […] In FIG. 12, BAL refers to bronchoalveolar lavage; pSmad2/Smad2 refers to ratio of phosphorylated Smad2 to total Smad2; and QD refers to once daily. **** refers to p<0.0001.

[3] = Phase 2a clinical trial: pharmacokinetics, sparse sampling, % unbound; conditions: b1346 concentrations; b1380 unbound concentrations
Description: Overall Summary of Pharmacokinetics. Based on sparse sampling, overall Compound 5 pharmacokinetics and % unbound in IPF were consistent with that of previous studies. […] Overall % unbound was ˜0.3 to 0.5%. Full PK curve will be predicted using population PK model to project AUC0-24 and Cmax.
Pharmacokinetic Evaluation. Sparse PK sampling was utilized for pharmacokinetic evaluation.

In the case of `COCCN(CCCCc1ccc2c(n1)NCCC2)CC[C@H](Nc1ncnc2ccccc12)C(=O)O` [Compound 5, (S)-4-((2-methoxyethyl) (4-(5,6,7,8-tetrahydro-1,8-naphthyridin-2-yl)butyl)amino)-2-(quinazolin-4-ylamino) butanoic acid], the “Mean Percent Change in QLF Extent From Baseline to Week 12 (Mean Difference)” value (“Mean Percent Change … (Mean Difference)” below) ([1]; 40 mg (N = 15)) is reported as 3.15%, the “Median change in QLF Extent From Baseline to Week 12” value (“Median change” for short) ([1]; 40 mg (N = 15)) is reported as 1.50% and the “QLF extent change Baseline to Week 12: Improvers < −2%, %” value ([1]; 40 mg (N = 15)) is reported as “(6.6%)”. For the same compound, the “QLF extent change Baseline to Week 12: Stable [−2, 2%), %” value ([1]; 40 mg (N = 15)) was “(46.7%)”, the “QLF extent change Baseline to Week 12: Worse > 2%, %” value ([1]; 40 mg (N = 15)) was “(46.7%)” and the “Mean Percent Change … (Mean Difference)” value ([1]; 80 mg (N = 18)) was 0.7%. The “Median change” value ([1]; 80 mg (N = 18)) was −0.45%, the “QLF extent change Baseline to Week 12: Improvers < −2%, %” value ([1]; 80 mg (N = 18)) was “(11.1%)” and the “QLF extent change Baseline to Week 12: Stable [−2, 2%), %” value ([1]; 80 mg (N = 18)) was “(72.2%)”. The “QLF extent change Baseline to Week 12: Worse > 2%, %” value ([1]; 80 mg (N = 18)) was “(16.7%)”, the “Mean Percent Change … (Mean Difference)” value ([1]; 160 mg (N = 14)) was 0% and the “Median change” value ([1]; 160 mg (N = 14)) was −0.10%. The “QLF extent change Baseline to Week 12: Improvers < −2%, %” value ([1]; 160 mg (N = 14)) was “(28.6%)”, the “QLF extent change Baseline to Week 12: Stable [−2, 2%), %” value ([1]; 160 mg (N = 14)) was “(50.0%)” and the “QLF extent change Baseline to Week 12: Worse > 2%, %” value ([1]; 160 mg (N = 14)) was “(21.4%)”. For the same compound, the “Progression based on mean change from baseline in QLF” value ([1]; 160 mg and 320 mg groups, Week 12) was “No or limited progression”, the “Likelihood of stabilization or improvement of fibrosis (QLF) relative to placebo at Week 24” value ([1]; 320 mg) was “twice as likely” and the “Mean (SD) Change in QLF Extent from Baseline at Week 12” value ([1]; 320 mg (n=16), Per CT protocol population, placebo (n=25) 1.46%) was 0.2%. The “Patients with stable or improved QLF from baseline at week 24” value ([1]; 320 mg, per CT protocol population, stable −2% to 2%, improved <−2%, placebo 33%) was 71%, the “Patients with worsened QLF from baseline at week 24” value ([1]; 320 mg, per CT protocol population, worsened >2%, placebo 67%) was 29% and the “Antifibrotic effect on QLF imaging” value ([1]; 40 to 320 mg, Week 12) was “Dose-dependent antifibrotic effect”. The “Target engagement” value [2] was “dose dependent” and the “Concentrations in IPF participants versus dose” value [3] was “increased approximately proportionally with dose”.
